In US12344610B2, “APOL1 inhibitors and methods of use” (Maze Therapeutics, Inc., priority 2022, dated 2025):

System: human immortalized podocytes inducibly expressing APOL1 G2
Test: APOL1 G2 podocyte cell rescue assay (Example B4)
Format: cell-based
Details: Homo sapiens, differentiated human podocytes, doxycycline-induced APOL1 G2, CellTiter-Glo; geometric mean of at least 2 runs; † = single run
Description: APOL1 G2 human immortalized podocyte viability assay for measurement of cytotoxicity reversal by compound (APOL1 G2 podocyte cell rescue assay).
Cell Handling. The hTERT-immortalized kidney podocyte cell line was procured from the laboratory of Dr. Moin Saleem at the University of Bristol, UK (Nephrology 17 (2012) 525-531; doi:10.1111/j.1440-1797.2012.01619.x; herein incorporated by reference in its entirety). Parental and engineered cell lines were cultured in RPMI 1640 media (Gibco, 11875093) with 10% Tet System Approved FBS (Takara, 631101). The engineered cell line was maintained under selection (2.5 μg/mL puromycin). Cell lines were maintained and engineered at 33° C. Cell cultures were transferred to 37° C. for 10 to 14 days to initiate differentiation (Nephrology 17 (2012) 525-531; doi:10.1111/j.1440-1797.2012.01619.x; herein incorporated by reference in its entirety). During this time, media was refreshed every 3 days. After differentiation, cells engineered to inducibly express APOL1 G2 were used in the podocyte cell rescue assay.
Cell Line Engineering. The APOL1 G2 coding sequence was cloned into the pLVX-TetOne-Puro vector and verified by sequencing (Genscript Biotech). This construct was designed to have a C-terminal HiBiT tag. Lentiviral packaging of the vector was conducted using the Lenti-X Packaging Single Shots (VSVG) system according to manufacturer instructions (Takara Bio, 631275). A stable cell line was generated by transfecting the parental podocyte cell line with the concentrated virus in media with 5 μg/mL polybrene (Sigma, TR-1003-G). Media was changed the following day. 72 hours post transfection, 2.5 μg/mL puromycin (Gibco, A1113803) was added to the cells and cells were maintained in selection media thereafter. This APOL1 G2 stable cellular pool was subjected to a stringent limiting dilution to generate a pure stable clone (Podocyte/pLVX-TetOne APOL1 G2/clone D10) capable of inducible expression of APOL1 G2.
Assay Setup. T175 flasks containing differentiated podocytes engineered to inducibly express APOL1 G2 (Podocyte/pLVX-TetOne APOL1 G2/clone D10) were washed once with 15 mL of DPBS (Thermo Fisher, 14190-144). These flasks were each trypsinized with 3 mL of prewarmed TrypLE Express (Gibco, 12605-010) and incubated at 37° C. with 5% CO2 until cells detached and neutralized with 7 mL of prewarmed assay media (RPMI 1640 media with 10% Tet System Approved FBS, no selection agent). Cells were pooled and the resulting suspension was gently mixed. The cell suspension was counted using a Countess Cell Counting Chamber (Invitrogen) and the cell concentration was adjusted to 240,000 cells/mL using assay media. Next, 25 μL of a 480 ng/mL working stock of doxycycline diluted in assay media was added to an assay ready plate. All experiments were performed in 384-well, white, solid bottom, tissue culture treated plates (Greiner, 781080). The assay ready compound plates were generated with duplicate 8-point compound dilution series that consisted of 3-fold stepwise dilutions (0.4% DMSO final). The plates were centrifuged at 1000 rpm for 1 minute. 25 μL of diluted cell suspension (final cell density=6,000 cells/well) was added to each well. The plates were centrifuged again at 1000 rpm for 1 minute and then incubated in a humidified incubator (37° C. with 5% CO2). After 95 hours, the assay plates were removed from the incubator and allowed to equilibrate to room temperature for 1 hour. CellTiter-Glo® reagent (Promega, G7570) was prepared according to the manufacturer's instructions. 25 μL of CellTiter-Glo® reagent was added to each well. Assay plates were sealed with foil and mixed for 5 minutes on an orbital shaker (500 rpm) to induce cell lysis. Plates were centrifuged at 1000 rpm for 1 minute. 10 minutes after CellTiter-Glo® reagent addition, an Envision plate reader (Perkin Elmer) was used to measure the luminescent signal of each assay plate. Collaborative Drug Discovery software was utilized for graphing data. […]

CN(c1c(F)cc(OCCN2CCC3(CC2)C(=O)Nc2ccc(Cl)cc23)cc1F)S(C)(=O)=O [Compound 127, N-[4-(2-{5-chloro-2-oxo-1,2-dihydrospiro[indole-3,4′-piperidin]-1′-yl}ethoxy)-2,6-difluorophenyl]-N-methylmethanesulfonamide]
EC50: 5.39 nM
